Experimental findings from patent publication US9993554B2 (CENTRO NACIONAL DE INVESTIGACIONES ONCOLOGICAS (CNIO), priority 2010, dated 2018) are described below.

Where two headings read alike, the source gives them in different places. Bounds are passed on as bounds.

One experiment deals with T1, PI3K (p110α/p85α) (Homo sapiens, UniProt P42336).
T1 construct: purchased Carna Biosciences 07CBS-0402A
The experiment can be described thus: PI3K activity assay (ADP Hunter Plus). In kind it is biochemical. The method, then:
The kinase activity was measured by using the commercial ADP Hunter™ Plus assay available from DiscoveRx (#33-016), which is a homogeneous assay to measure the accumulation of ADP, a universal product of kinase activity. […] Reaction was carried out for 1 hour at 25° C. Reagent A and B were sequentially added to the wells and plates were incubated for 30 min at 37° C. […] Values were normalized against the control activity included for each enzyme (i.e., 100% PI3 kinase activity, without compound). These values were plot against the inhibitor concentration and were fit to a sigmoid dose-response curve by using the Graphad software.

The next experiment has as its system phospho-Ser-473-Akt. The experiment is described as follows: AKT phosphorylation inhibition, Western blot cell assay. In kind it is cell-based. Particulars: Homo sapiens; cell assay procedure; read-out: IC50 of AKT Phosphorylation Inhibition, p-AKT cell. The procedure: The cell lines were obtained from the American Type Culture Collection (ATCC). U2OS (human osteosarcoma) was cultured in Dulbecco's modified Eagle's medium (DMEM). PC3 (human prostate carcinoma), MCF7 (human breast cardinoma), HCT116 (human colon carcinoma), 768-0 (human neuroblastoma), U251 (human glyoblastoma) were grown in RPMI. All media were supplemented with 10% fetal bovine serum (FBS) (Sigma) and antibiotics-antimycotics. Cell were maintained in a humidified incubator at 37° C. with 5% CO2 and passaged when confluent using trypsin/EDTA.
Subconfluent cells were incubated under different conditions and washed twice with TBS prior to lysis. Lysis buffer was added containing 50 mM Tris HCl, 150 mM NaCl, 1% NP-40, 2 mM Na3VO4, 100 mM NaF, 20 mM Na4P2O7 and protease inhibitor cocktail (Roche Molecular Biochemicals). The proteins were resolved on 10% SDS-PAGE and transferred to nitrocellulose membrane (Schleicher & Schuell, Dassel, Germany). The membranes were incubated overnight at 4° C. with antibodies specific for Akt, phospho-Ser-473-Akt (Cell Signaling Technology) and α-tubulin (Sigma), they were washed and then incubated with IRDye800 conjugated anti-mouse and Alexa Fluor 680 goat anti-rabbit IgG secondary antibodies. The bands were visualized using an Odyssey infrared imaging system (Li-Cor Biosciences).
On the technique in general: Immunoblotting shows a protein as a band on a membrane.

[1] abbreviates: semi-quantitative results, read-out: PI3Kα IC50 (semi-quantitative class).
The mark [2] stands for this setting: quantitative results, read-out: PI3Kα IC50.
[3] abbreviates: quantitative results, Table 4, read-out: PI3Kα IC50.

T1 sequence (P42336 whole entry): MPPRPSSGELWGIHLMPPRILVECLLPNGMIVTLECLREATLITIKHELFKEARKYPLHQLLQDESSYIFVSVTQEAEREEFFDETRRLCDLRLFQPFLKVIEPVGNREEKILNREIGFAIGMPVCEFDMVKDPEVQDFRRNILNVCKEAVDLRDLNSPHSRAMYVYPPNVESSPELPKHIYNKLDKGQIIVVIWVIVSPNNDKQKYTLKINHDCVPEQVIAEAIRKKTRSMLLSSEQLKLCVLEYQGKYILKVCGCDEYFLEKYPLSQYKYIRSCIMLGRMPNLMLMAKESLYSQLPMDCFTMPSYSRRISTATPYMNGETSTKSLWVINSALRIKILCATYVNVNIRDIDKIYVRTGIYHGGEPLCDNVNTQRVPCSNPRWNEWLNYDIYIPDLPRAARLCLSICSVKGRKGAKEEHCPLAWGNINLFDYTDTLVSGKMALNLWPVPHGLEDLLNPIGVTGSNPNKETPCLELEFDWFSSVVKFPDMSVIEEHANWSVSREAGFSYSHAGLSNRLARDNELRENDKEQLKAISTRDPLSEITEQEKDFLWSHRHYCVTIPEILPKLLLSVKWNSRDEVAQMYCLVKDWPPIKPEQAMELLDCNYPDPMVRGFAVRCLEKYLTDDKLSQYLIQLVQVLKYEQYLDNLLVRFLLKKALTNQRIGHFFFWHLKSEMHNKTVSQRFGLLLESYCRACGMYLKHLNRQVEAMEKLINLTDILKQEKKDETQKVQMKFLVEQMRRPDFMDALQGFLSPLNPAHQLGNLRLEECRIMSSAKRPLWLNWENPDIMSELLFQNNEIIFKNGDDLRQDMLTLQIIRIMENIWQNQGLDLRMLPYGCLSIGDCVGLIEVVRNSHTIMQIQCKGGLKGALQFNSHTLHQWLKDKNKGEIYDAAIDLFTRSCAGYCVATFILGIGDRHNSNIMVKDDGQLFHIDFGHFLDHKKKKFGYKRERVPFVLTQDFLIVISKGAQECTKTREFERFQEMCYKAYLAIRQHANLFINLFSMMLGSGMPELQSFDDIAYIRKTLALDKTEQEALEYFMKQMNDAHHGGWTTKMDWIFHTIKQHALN
T1 sequence (P27986 whole entry partner): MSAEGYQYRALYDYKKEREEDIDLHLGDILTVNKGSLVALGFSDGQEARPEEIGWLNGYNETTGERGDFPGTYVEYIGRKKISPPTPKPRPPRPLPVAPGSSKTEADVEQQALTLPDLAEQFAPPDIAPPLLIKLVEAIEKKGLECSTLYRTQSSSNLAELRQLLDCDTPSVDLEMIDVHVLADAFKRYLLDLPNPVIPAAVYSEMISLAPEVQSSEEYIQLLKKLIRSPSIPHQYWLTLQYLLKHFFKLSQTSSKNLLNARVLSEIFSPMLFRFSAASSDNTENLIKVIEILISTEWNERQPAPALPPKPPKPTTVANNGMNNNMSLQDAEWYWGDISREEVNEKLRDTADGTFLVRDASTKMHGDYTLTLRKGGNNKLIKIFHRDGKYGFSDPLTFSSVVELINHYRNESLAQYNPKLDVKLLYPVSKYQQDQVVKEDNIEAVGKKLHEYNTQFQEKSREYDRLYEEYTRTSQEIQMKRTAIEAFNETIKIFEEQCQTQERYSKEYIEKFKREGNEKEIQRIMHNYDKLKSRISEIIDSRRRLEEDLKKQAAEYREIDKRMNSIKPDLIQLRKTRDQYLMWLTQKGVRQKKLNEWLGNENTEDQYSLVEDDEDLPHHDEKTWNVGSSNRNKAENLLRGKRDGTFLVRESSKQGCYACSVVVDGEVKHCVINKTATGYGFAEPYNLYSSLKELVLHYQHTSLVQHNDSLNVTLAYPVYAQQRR

With `CS(=O)(=O)N1CCN(C(=O)c2cn3cc(-c4cccc5[nH]ncc45)nc(N4CCOCC4)c3n2)CC1` [Compound 2-16], the results for the IC50 on PI3K (p110α/p85α) (setting [1]) and with phospho-Ser-473-Akt were 100 to 1000 nM and 503 nM, respectively.

Regarding `O=C(c1cn2cc(-c3cccc4[nH]ncc34)nc(N3CCOCC3)c2n1)N1CCNCC1` [Compound 2-18], the IC50 – broadly, the concentration at which inhibition is half-maximal – at PI3K (p110α/p85α) (setting [1]) fell in the range of 100 to 1000 nM. `Cc1cn2cc(-c3ccc4cc[nH]c4c3)nc(N3CCOCC3)c2n1` [Compound 2-25]: on PI3K (p110α/p85α) (setting [2]), the concentration for half-maximal inhibition (IC50) was found to be 10000 nM.

In the case of `Cc1cn2cc(-c3cccc(NS(C)(=O)=O)c3)nc(N3CCOCC3)c2n1` [Compound 2-28], the IC50 at PI3K (p110α/p85α) (setting [2]) was determined as 50000 nM. For `CN1CCN(c2cnc3c(N4CCOCC4)nc(-c4cccc(O)c4)cn23)CC1` [Compound 2-37], the concentration for half-maximal inhibition (IC50) at PI3K (p110α/p85α) (setting [1]) lay in the range of 100 to 1000 nM. Take `CN1CCN(c2cnc3c(N4CCOCC4)nc(-c4cccc5[nH]ncc45)cn23)CC1` [Compound 2-38]: the IC50 at PI3K (p110α/p85α) (setting [1]) lay in the range of 100 to 1000 nM. On the same count and under the same terms, the result for `CS(=O)(=O)N1CCN(c2cnc3c(N4CCOCC4)nc(-c4cccc(O)c4)cn23)CC1` [Compound 2-39] reads 100 to 1000 nM; that for `Oc1cccc(-c2cn3c(N4CCNCC4)cnc3c(N3CCOCC3)n2)c1` [Compound 2-40], 100 to 1000 nM; that for `CS(=O)(=O)N1CCN(c2cnc3c(N4CCOCC4)nc(-c4cccc5[nH]ncc45)cn23)CC1` [Compound 2-41], 100 to 1000 nM.

On to `Cc1cn2c(Cl)c(-c3cccc(O)c3)nc(N3CCOCC3)c2n1` [Compound 2-49], for which the IC50 at PI3K (p110α/p85α) (setting [1]) lay in the range of 100 to 1000 nM. On to `Cc1nc2c(N3CCOCC3)nc(-c3cccc4[nH]ncc34)cn2c1C1CCN(C)CC1` [Compound 2-58], for which the IC50 on PI3K (p110α/p85α) (setting [1]) lay within 100 to 1000 nM. Regarding `CS(=O)(=O)N1CCN(Cc2cn3c(Cl)c(-c4cccc5[nH]ncc45)nc(N4CCOCC4)c3n2)CC1` [Compound 2-60], the 50% inhibitory concentration (IC50) at PI3K (p110α/p85α) (setting [1]) is 100 to 1000 nM.

For `COc1ccc(-c2cn3cc(CN4CCN(S(C)(=O)=O)CC4)nc3c(N3CCOCC3)n2)cn1` [Compound 2-61], the IC50 at PI3K (p110α/p85α) (setting [2]) was found to be 4500 nM.

On to `COc1cncc(-c2cn3cc(CN4CCN(S(C)(=O)=O)CC4)nc3c(N3CCOCC3)n2)c1` [Compound 2-65], for which the IC50 at PI3K (p110α/p85α) (setting [1]) was greater than 1000 nM. Turning to `CS(=O)(=O)N1CCN(Cc2cn3cc(-c4ccc(N)nc4)nc(N4CCOCC4)c3n2)CC1` [Compound 2-66], the IC50 at PI3K (p110α/p85α) (setting [2]) was determined as 169 nM; in the experiment with phospho-Ser-473-Akt, 14 nM.

Take `COc1ncc(-c2cn3cc(CN4CCN(S(C)(=O)=O)CC4)nc3c(N3CCOCC3)n2)cn1` [Compound 2-67]: the IC50 is 100 to 1000 nM at PI3K (p110α/p85α) (setting [1]) and 198 nM with phospho-Ser-473-Akt. As to `CS(=O)(=O)N1CCN(Cc2cn3cc(-c4ccc(C(N)=O)cc4)nc(N4CCOCC4)c3n2)CC1` [Compound 2-68], the IC50 on PI3K (p110α/p85α) (setting [2]) was 11000 nM. Take `CS(=O)(=O)N1CCN(Cc2cn3cc(-c4cnc5[nH]ccc5c4)nc(N4CCOCC4)c3n2)CC1` [Compound 2-75]: the IC50 at PI3K (p110α/p85α) (setting [2]) turned out to be 113 nM; with phospho-Ser-473-Akt it was 77 nM. As for `CNC(=O)Nc1ccc(-c2cn3cc(CN4CCN(S(C)(=O)=O)CC4)nc3c(N3CCOCC3)n2)cc1` [Compound 2-82], the IC50 at PI3K (p110α/p85α) (setting [2]) came to 158 nM.

In the case of `CS(=O)(=O)N1CCN(Cc2cn3cc(-c4ccc5[nH]ncc5c4)nc(N4CCOCC4)c3n2)CC1` [Compound 2-127], the IC50 on PI3K (p110α/p85α) (setting [3]) stood at 37000 nM. Consider `CS(=O)(=O)N1CC2(CCN(Cc3cn4cc(-c5cccc6[nH]ncc56)nc(N5CCOCC5)c4n3)CC2)C1` [Compound 2-145], for which, at PI3K (p110α/p85α) (setting [3]), the IC50 was 3000 nM. As for `CS(=O)(=O)N1C2CCC1CN(Cc1cn3cc(-c4cnc(N)nc4)nc(N4CCOCC4)c3n1)C2` [Compound 2-228], on PI3K (p110α/p85α) (setting [2]), the IC50 turned out to be 108 nM.
